Publication PMC10746543, “Design principles for cyclin K molecular glue degraders” (Nature Chemical Biology, 2023)
Several values for one entry are separate records, joined by “and”; a condition that tells them apart may be missing. Identical values can stand only once. Like-named read-outs stand apart in the source and are kept apart here.

Experiments:
CDK12–cyclin K and DDB1 = biological target: T1, CDK12–cyclin K and DDB1 (Homo sapiens, UniProt Q16531+Q9NYV4, K965R); test: TR-FRET ternary complex formation assay (compound titration); assay type: binding
T1 construct: His6–CDK12 (a.a. 713–1,052); full-length or beta-propeller B domain deletion (ΔBPB: a.a. 396–705 deleted) constructs of His6–DDB1ΔBPB, StrepII–Avi–DDB1, or His6–Spy–DDB1; made in house; host or cells: Trichoplusia ni High Five insect cells (baculovirus)
Excerpt: A 70 μs delay was employed to reduce background fluorescence. The TR-FRET signal was obtained through calculating the ratio of 520 nm to 490 nm fluorescence, and Prism 9 (GraphPad) was used for further data analysis.

HEK293T cells = test: Drug sensitivity assay (CellTiter-Glo viability) with or without MLN4924 pretreatment; assay type: cell-based, human; settings: Supplementary Table 2; for EC50: Homo sapiens, HEK-293T, HEK293T viability, 72 h, compound alone, read-out: Cellular assays EC50; for Toxicity rescue: MLN4924-mediated cytotoxicity rescue, 10 µM used where n.d.
Procedure: HEK293T–Cas9 cells were resuspended at 0.15 × 10^6 ml^−1 treated with DMSO or 100 nM MLN4924 and plated on 384-well plates. After 2 h, the indicated drugs were dispensed with a D300 digital dispenser (Tecan). After 3 days of drug exposure, cell viability was assessed using the CellTiter-Glo luminescent assay (Promega, G7572) on an CLARIOstar Plus, MARS 3.4 (BMG LabTech). Cell viabilities were calculated relative to DMSO controls.

[1] = test system: cyclin K–eGFP degradation reporter; test: Cyclin K reporter stability analysis (dual-color cyclin K–eGFP reporter); assay type: cell-based, human
Procedure: HEK293T–Cas9 cells expressing the cyclin K–eGFP degradation reporter were resuspended at 1 × 10^6 ml^−1 and 50 µl of cell suspension was seeded in non-cell-culture-treated 384-well plates. Shortly after, cells were treated with drug or DMSO for 5 h. […] The fluorescent signal was quantified by flow cytometry (LSRFortessa flow cytometer, BD Biosciences). Using FlowJo (flow cytometry analysis software, BD Biosciences), the geometric mean of the eGFP and mCherry fluorescent signal for round and mCherry-positive cells was calculated. The ratio of eGFP to mCherry was normalized to the average of three DMSO-treated controls.

[2] = compound concentration 79.2001 nM
[3] = compound concentration 158.4 nM
[4] = compound concentration 309.6 nM
[5] = compound concentration 626.401 nM
[6] = compound concentration 1252.8 nM
[7] = compound concentration 9936.01 nM
[8] = compound concentration 20016 nM
[9] = in vitro complex formation, 50 nM CDK12–cyclin K, 100 nM DDB1, text and figures, read-out: TR-FRET EC50
[10] = sheet MOESM7, read-out: log TR-FRET EC50 (converted)
[11] = source data sheet correlations, read-out: TR-FRET EC50
[12] = source data sheet correlations, read-out: DC50

T1 sequence (Q9NYV4 713-1052 K965R): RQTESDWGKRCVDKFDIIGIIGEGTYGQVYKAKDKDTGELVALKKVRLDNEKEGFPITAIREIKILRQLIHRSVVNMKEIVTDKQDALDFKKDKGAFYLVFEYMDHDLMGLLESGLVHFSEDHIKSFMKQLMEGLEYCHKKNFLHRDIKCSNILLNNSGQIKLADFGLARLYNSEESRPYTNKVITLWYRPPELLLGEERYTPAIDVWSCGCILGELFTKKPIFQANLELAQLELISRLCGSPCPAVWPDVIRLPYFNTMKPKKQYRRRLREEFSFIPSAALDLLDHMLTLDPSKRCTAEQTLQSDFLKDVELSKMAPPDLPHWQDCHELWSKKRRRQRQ
T1 sequence (O75909 1-267 partner): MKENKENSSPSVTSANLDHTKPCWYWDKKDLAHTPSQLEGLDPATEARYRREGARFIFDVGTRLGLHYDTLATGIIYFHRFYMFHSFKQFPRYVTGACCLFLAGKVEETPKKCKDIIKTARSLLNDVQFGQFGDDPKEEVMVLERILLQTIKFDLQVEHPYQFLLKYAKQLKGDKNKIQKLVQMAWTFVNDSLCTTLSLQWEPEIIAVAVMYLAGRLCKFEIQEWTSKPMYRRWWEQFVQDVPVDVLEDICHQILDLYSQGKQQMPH
T1 sequence (Q16531 whole entry): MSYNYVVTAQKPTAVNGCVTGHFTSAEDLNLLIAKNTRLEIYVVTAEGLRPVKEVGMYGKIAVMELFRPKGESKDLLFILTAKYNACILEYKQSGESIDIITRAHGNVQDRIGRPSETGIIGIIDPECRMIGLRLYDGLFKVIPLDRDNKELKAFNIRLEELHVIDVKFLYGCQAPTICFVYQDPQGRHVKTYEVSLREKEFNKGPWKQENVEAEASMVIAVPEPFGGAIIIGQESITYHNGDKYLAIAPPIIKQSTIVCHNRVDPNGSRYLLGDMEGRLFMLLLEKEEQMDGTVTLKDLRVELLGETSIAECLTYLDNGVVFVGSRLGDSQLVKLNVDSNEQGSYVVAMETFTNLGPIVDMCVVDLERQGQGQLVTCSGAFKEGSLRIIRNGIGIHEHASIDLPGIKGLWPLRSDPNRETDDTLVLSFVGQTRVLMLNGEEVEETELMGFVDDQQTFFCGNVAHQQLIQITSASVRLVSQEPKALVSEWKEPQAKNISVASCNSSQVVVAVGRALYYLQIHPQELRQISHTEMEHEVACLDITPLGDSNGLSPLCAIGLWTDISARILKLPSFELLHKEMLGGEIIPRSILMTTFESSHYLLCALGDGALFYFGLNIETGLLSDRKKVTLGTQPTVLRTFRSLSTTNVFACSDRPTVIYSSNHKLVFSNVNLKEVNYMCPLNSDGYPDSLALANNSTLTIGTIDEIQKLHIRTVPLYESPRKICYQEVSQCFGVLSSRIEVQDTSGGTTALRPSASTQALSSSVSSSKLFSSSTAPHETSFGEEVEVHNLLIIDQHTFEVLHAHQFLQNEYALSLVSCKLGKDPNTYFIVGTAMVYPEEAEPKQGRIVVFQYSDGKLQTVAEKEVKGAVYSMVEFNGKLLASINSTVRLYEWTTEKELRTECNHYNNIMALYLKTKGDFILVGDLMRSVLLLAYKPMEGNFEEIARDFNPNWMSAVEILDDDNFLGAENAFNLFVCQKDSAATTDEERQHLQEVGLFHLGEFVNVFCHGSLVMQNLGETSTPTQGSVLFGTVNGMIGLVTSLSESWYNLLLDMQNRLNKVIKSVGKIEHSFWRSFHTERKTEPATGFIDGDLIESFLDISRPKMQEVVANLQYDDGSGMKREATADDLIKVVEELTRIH

## CCCCCCCCNc1nc(N[C@H](CC)CO)nc2c1ncn2C(C)C [DS06]
CDK12–cyclin K and DDB1; compound concentration 4.68 nM
  TR-FRET signal: 0.1399 and 0.1627 and 0.1459 and 0.1432
  TR-FRET signal, individual replicate: 0.1399 and 0.1627 and 0.1459 and 0.1432
CDK12–cyclin K and DDB1; compound concentration 21.6 nM
  TR-FRET signal: 0.173 and 0.1922 and 0.1723 and 0.1754
  TR-FRET signal, individual replicate: 0.173 and 0.1922 and 0.1723 and 0.1754
CDK12–cyclin K and DDB1; compound concentration 36 nM
  TR-FRET signal: 0.2228 and 0.253 and 0.2242 and 0.2297
  TR-FRET signal, individual replicate: 0.2228 and 0.253 and 0.2242 and 0.2297
CDK12–cyclin K and DDB1; [2]
  TR-FRET signal: 0.3087 and 0.3318 and 0.3304 and 0.3159
  TR-FRET signal, individual replicate: 0.3087 and 0.3318 and 0.3304 and 0.3159
CDK12–cyclin K and DDB1; [3]
  TR-FRET signal: 0.4597 and 0.4851 and 0.4992 and 0.3486
  TR-FRET signal, individual replicate: 0.4597 and 0.4851 and 0.4992 and 0.3486
CDK12–cyclin K and DDB1; [4]
  TR-FRET signal: 0.6961 and 0.632 and 0.7161 and 0.7436
  TR-FRET signal, individual replicate: 0.6961 and 0.632 and 0.7161 and 0.7436
CDK12–cyclin K and DDB1; [5]
  TR-FRET signal: 0.9481 and 0.8335 and 0.9996 and 0.9936
  TR-FRET signal, individual replicate: 0.9481 and 0.8335 and 0.9996 and 0.9936
CDK12–cyclin K and DDB1; [6]
  TR-FRET signal: 1.125 and 0.8632 and 1.358 and 1.356
  TR-FRET signal, individual replicate: 1.125 and 0.8632 and 1.358 and 1.356
CDK12–cyclin K and DDB1; compound concentration 2448 nM
  TR-FRET signal: 1.642 and 1.809 and 1.711 and 1.743
  TR-FRET signal, individual replicate: 1.642 and 1.809 and 1.711 and 1.743
CDK12–cyclin K and DDB1; [7]
  TR-FRET signal: 2.02 and 2.174 and 2.025 and 2.055
  TR-FRET signal, individual replicate: 2.02 and 2.174 and 2.025 and 2.055
CDK12–cyclin K and DDB1; [8]
  TR-FRET signal: 2.092 and 2.228 and 2.285 and 2.284
  TR-FRET signal, individual replicate: 2.092 and 2.228 and 2.285 and 2.284
CDK12–cyclin K and DDB1; [9]
  EC50: 1160 nM
CDK12–cyclin K and DDB1; [10]
  EC50: 1160 nM
HEK293T cells
  EC50: > 10000 nM
  Toxicity rescue: 0%
[1]; Supplementary Table 2, HEK293T cycK-eGFP reporter, 5 h, read-out: Cellular assays DC50
  DC50: > 10000 nM

## Cn1cc(-n2cnc3c(NCc4nc5cc(Cl)c(Cl)cc5[nH]4)nc(NCCc4cn[nH]c4)nc32)cn1 [DS57]
CDK12–cyclin K and DDB1; raw replicate titration data
  TR-FRET signal at compound concentration 0.468 nM: 0.2681 and 0.2803
  TR-FRET signal at compound concentration 2.16 nM: 0.3056 and 0.3131
  TR-FRET signal at compound concentration 3.6 nM: 0.3611 and 0.3774
  TR-FRET signal at compound concentration 7.92001 nM: 0.4715 and 0.4922
  TR-FRET signal at compound concentration 15.84 nM: 0.6621 and 0.6827
  TR-FRET signal at compound concentration 30.96 nM: 1.043 and 1.045
  TR-FRET signal at compound concentration 62.6401 nM: 1.709 and 1.668
  TR-FRET signal at compound concentration 125.28 nM: 2.476 and 2.42
  TR-FRET signal at compound concentration 244.8 nM: 2.963 and 3.026
  TR-FRET signal at compound concentration 993.601 nM: 3.269 and 3.459
  TR-FRET signal at compound concentration 2001.6 nM: 3.336 and 3.495
CDK12–cyclin K and DDB1; [9]
  EC50: 72 ± 5 nM
CDK12–cyclin K and DDB1; [10]
  EC50: 72.3 nM
CDK12–cyclin K and DDB1; [11]
  EC50: 72.3 nM
HEK293T cells
  EC50: > 10000 nM
  Toxicity rescue: 0%
[1]; [12]
  DC50: 587 nM

## CC(C)n1cnc2c(NCc3ccc(-c4ccccn4)cc3)nc(NCc3c(Cl)cncc3Cl)nc21 [DS48]
CDK12–cyclin K and DDB1; raw titration data
  TR-FRET signal at compound concentration 0.468 nM: 0.2749 and 0.2901
  TR-FRET signal at compound concentration 2.16 nM: 0.3467 and 0.3488
  TR-FRET signal at compound concentration 3.6 nM: 0.4769 and 0.4631
  TR-FRET signal at compound concentration 7.92001 nM: 0.7379 and 0.6676
  TR-FRET signal at compound concentration 15.84 nM: 1.149 and 0.9938
  TR-FRET signal at compound concentration 30.96 nM: 1.778 and 1.5795
  TR-FRET signal at compound concentration 62.6401 nM: 2.574 and 2.417
  TR-FRET signal at compound concentration 125.28 nM: 3.287 and 3.206
  TR-FRET signal at compound concentration 244.8 nM: 3.511 and 3.701
  TR-FRET signal at compound concentration 993.601 nM: 3.896 and 4.02
  TR-FRET signal at compound concentration 2001.6 nM: 3.877 and 4.06
CDK12–cyclin K and DDB1; [9]
  EC50: 46 ± 2 nM
CDK12–cyclin K and DDB1; [10]
  EC50: 46 nM
CDK12–cyclin K and DDB1; [11]
  EC50: 46 nM
HEK293T cells
  EC50: 907 nM
  Toxicity rescue: 313%
[1]; [12]
  DC50: 366 nM
